Measured values published in patent US10556888B2, “Pyrazole compounds or salts thereof, preparation methods therefor, herbicidal compositions and use thereof” (QINGDAO KINGAGROOT CHEMICAL COMPOUNDS CO., LTD, priority 2015, dated 2020).

How the values were obtained:
Assay type in all cases: in vivo
Rice = assay: Transplanted rice safety evaluation; design: key: Level 10: completely dead; Level 9: above 90% growth inhibition rate; Level 8: above 80% growth inhibition rate; Level 7: above 70% growth inhibition rate; Level 6: above 60% growth inhibition rate; Level 5: above 50% growth inhibition rate; Level 4: above 30% growth inhibition rate; Level 3: above 20% growth inhibition rate; Level 2: above 10% growth inhibition rate; Level 1: above 1-10% growth inhibition rate; Level 0: no effect; details: transplanted 3 leaf stage japonica rice, application rate 500 g/ha, 21 days after treatment
Description: In addition, the rice field soil that loaded into the 1/1,000,000 ha pot was leveled to keep water storage at 3-4 cm depth. The 3 leaf stage rice (japonica rice) was transplanted at 3 cm of transplanting depth the next day. The compound of the present invention was treated by the same way after 5 days of transplantation. The fertility condition of Echinochloa, Scirpus juncoides, Bidens tripartite and Sagittaria trifolia 14 days after the treatment of the compound of the invention and the fertility condition of rice 21 days after the treatment of the compound of the invention respectively with the naked eye.

Echinochloa crus-galli = assay: Weed control effect evaluation in transplanted rice field; design: key: Level 10: completely dead; Level 9: above 90% growth inhibition rate; Level 8: above 80% growth inhibition rate; Level 7: above 70% growth inhibition rate; Level 6: above 60% growth inhibition rate; Level 5: above 50% growth inhibition rate; Level 4: above 30% growth inhibition rate; Level 3: above 20% growth inhibition rate; Level 2: above 10% growth inhibition rate; Level 1: above 1-10% growth inhibition rate; Level 0: no effect; details: transplanted rice field pot test, application rate 500 g/ha, 14 days after treatment
Description: (§1) Rice field soil was loaded into a 1/1,000,000 ha pot. The seeds of Echinochloa, Scirpus juncoides, Bidens tripartite and Sagittaria trifolia were sowed and gently covered with soil, then left to stand still in greenhouse in the state of 0.5-1 cm of water storage. The tuber of Sagittaria trifolia was planted in the next day or 2 days later. It was kept at 3-4 cm of water storage thereafter. The weeds were treated by dripping the WP or SC water diluents prepared according to the common preparation method of the compounds of the present invention with pipette homogeneously to achieve specified effective amount when Echinochloa, Scirpus juncoides and Bidens tripartite reached 0.5 leaf stage and Sagittaria trifolia reached the time point of primary leaf stage.
(§2) The fertility condition of Echinochloa, Scirpus juncoides, Bidens tripartite and Sagittaria trifolia 14 days after the treatment of the compound of the invention and the fertility condition of rice 21 days after the treatment of the compound of the invention respectively with the naked eye.
(§3) The seeds of Echinochloa crus-galli, Scirpus juncoides and Monochoria vaginalis were collected from Heilongjing and Jiangsu Province of China.

Monochoria vaginalis = assay: as above; design: key: Level 10: completely dead; Level 9: above 90% growth inhibition rate; Level 8: above 80% growth inhibition rate; Level 7: above 70% growth inhibition rate; Level 6: above 60% growth inhibition rate; Level 5: above 50% growth inhibition rate; Level 4: above 30% growth inhibition rate; Level 3: above 20% growth inhibition rate; Level 2: above 10% growth inhibition rate; Level 1: above 1-10% growth inhibition rate; Level 0: no effect; details: transplanted rice field pot test, application rate 500 g/ha, 14 days after treatment
Description: as §1, §2, §3

Scirpus juncoides = assay: as above; design: key: Level 10: completely dead; Level 9: above 90% growth inhibition rate; Level 8: above 80% growth inhibition rate; Level 7: above 70% growth inhibition rate; Level 6: above 60% growth inhibition rate; Level 5: above 50% growth inhibition rate; Level 4: above 30% growth inhibition rate; Level 3: above 20% growth inhibition rate; Level 2: above 10% growth inhibition rate; Level 1: above 1-10% growth inhibition rate; Level 0: no effect; details: transplanted rice field pot test, application rate 500 g/ha, 14 days after treatment
Description: as §1, §2, §3

[1] = test system: Monocotyledonous and dicotyledonous weed; assay: Post-emergence test experiment, weed control effect (Table 2); design: key to weed control effect, Setaria viridis (level) / weed control effect, Rorippa indica (level) / weed control effect, Abutilon theophrasti (level) / weed control effect, Echinochloa crus-galli (level) / weed control effect, Digitaria sanguinalis (level): Level 10: completely dead; Level 9: above 90% growth inhibition rate; Level 8: above 80% growth inhibition rate; Level 7: above 70% growth inhibition rate; Level 6: above 60% growth inhibition rate; Level 5: above 50% growth inhibition rate; Level 4: above 30% growth inhibition rate; Level 3: above 20% growth inhibition rate; Level 2: above 10% growth inhibition rate; Level 1: above 1-10% growth inhibition rate; Level 0: no effect; details: 3 weeks after spraying, greenhouse
Outline: (§4)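 Compounds, dissolved in acetone, mixed with Tween 80 and diluted in water, were sprayed post-emergence onto greenhouse-grown weeds and crops at the 2-3 leaf stage (2-3 weeks post-sowing). Plants then grown 3 more weeks in the greenhouse before evaluation.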

[2] = test system: main crop (wheat, corn, rice, soybean, cotton, oilseed, millet and sorghum); assay: Post-emergence test experiment, main crops (Table 2); design: key: Level 10: completely dead; Level 9: above 90% growth inhibition rate; Level 8: above 80% growth inhibition rate; Level 7: above 70% growth inhibition rate; Level 6: above 60% growth inhibition rate; Level 5: above 50% growth inhibition rate; Level 4: above 30% growth inhibition rate; Level 3: above 20% growth inhibition rate; Level 2: above 10% growth inhibition rate; Level 1: above 1-10% growth inhibition rate; Level 0: no effect; details: 3 weeks after spraying, greenhouse
Outline: as §4

Structure (SMILES)	weed control effect, Abutilon theophrasti (level) ([1]; 120 g/ha)	weed control effect, Bidens pilosa (level) ([1]; 120 g/ha)	weed control effect, Digitaria sanguinalis (level) ([1]; 120 g/ha)	weed control effect, Echinochloa crus-galli (level) ([1]; 120 g/ha)	weed control effect, Rorippa indica (level) ([1]; 120 g/ha)	weed control effect, Setaria viridis (level) ([1]; 120 g/ha)	effect on crop, corn (level) ([2]; 120 g/ha)	effect on crop, rice (level) ([2]; 120 g/ha)	effect on crop, wheat (level) ([2]; 120 g/ha)	weed control effect, Abutilon theophrasti (level) ([1]; 60 g/ha)	weed control effect, Bidens pilosa (level) ([1]; 60 g/ha)	weed control effect, Digitaria sanguinalis (level) ([1]; 60 g/ha)	weed control effect, Echinochloa crus-galli (level) ([1]; 60 g/ha)	weed control effect, Rorippa indica (level) ([1]; 60 g/ha)	weed control effect, Setaria viridis (level) ([1]; 60 g/ha)	effect on crop, corn (level) ([2]; 60 g/ha)	effect on crop, rice (level) ([2]; 60 g/ha)	effect on crop, wheat (level) ([2]; 60 g/ha)	also measured
Cc1ccn(Cc2c(S(C)(=O)=O)ccc(C(=O)c3c(C)nn(C)c3OC(=O)c3cn(C)nc3C)c2Cl)n1 [Compound 02]	8 (Level 8: above 80% growth inhibition rate)	9 (Level 9: above 90% growth inhibition rate)	2 (Level 2: above 10% growth inhibition rate)	10	10	6 (Level 6: above 60% growth inhibition rate)	0	1 (Level 1: above 1-10% growth inhibition rate)	0										Rice (safety, activity level) (Rice): 0; Weed control effect, Echinochloa crus-galli (activity level) (Echinochloa crus-galli): 10; Weed control effect, Monochoria vaginalis (activity level) (Monochoria vaginalis): 9 (Level 9: above 90% growth inhibition rate); Weed control effect, Scirpus juncoides (activity level) (Scirpus juncoides): 10
Cc1ccn(Cc2c(S(C)(=O)=O)ccc(C(=O)c3cnn(C)c3OC(=O)c3cn(C)nc3C)c2Cl)n1 [Compound 06]	7 (Level 7: above 70% growth inhibition rate)	9 (Level 9: above 90% growth inhibition rate)	2 (Level 2: above 10% growth inhibition rate)	10	10	6 (Level 6: above 60% growth inhibition rate)	0	1 (Level 1: above 1-10% growth inhibition rate)	0										Rice (safety, activity level) (Rice): 1 (Level 1: above 1-10% growth inhibition rate); Weed control effect, Echinochloa crus-galli (activity level) (Echinochloa crus-galli): 10; Weed control effect, Monochoria vaginalis (activity level) (Monochoria vaginalis): 10; Weed control effect, Scirpus juncoides (activity level) (Scirpus juncoides): 10
Cn1cc(Cl)c(C(=O)Oc2c(C(=O)c3ccc(S(C)(=O)=O)c(COCC(F)F)c3Cl)cnn2C)n1 [Compound 102]																			weed control effect, Abutilon theophrasti (level) ([1]; 30 g/ha): 7 (Level 7: above 70% growth inhibition rate); weed control effect, Bidens pilosa (level) ([1]; 30 g/ha): 7 (Level 7: above 70% growth inhibition rate); weed control effect, Digitaria sanguinalis (level) ([1]; 30 g/ha): 7 (Level 7: above 70% growth inhibition rate); weed control effect, Echinochloa crus-galli (level) ([1]; 30 g/ha): 10; weed control effect, Rorippa indica (level) ([1]; 30 g/ha): 10; weed control effect, Setaria viridis (level) ([1]; 30 g/ha): 6 (Level 6: above 60% growth inhibition rate); effect on crop, corn (level) ([2]; 30 g/ha): 1 (Level 1: above 1-10% growth inhibition rate); effect on crop, rice (level) ([2]; 30 g/ha): 5 (Level 5: above 50% growth inhibition rate); effect on crop, wheat (level) ([2]; 30 g/ha): 0
Cc1cc(C)n(Cc2c(S(C)(=O)=O)ccc(C(=O)c3c(C)nn(C(C)C)c3OC(=O)c3nn(C)cc3Cl)c2Cl)n1 [Compound 103]	7 (Level 7: above 70% growth inhibition rate)	7 (Level 7: above 70% growth inhibition rate)	2 (Level 2: above 10% growth inhibition rate)	10	10	3 (Level 3: above 20% growth inhibition rate)	1 (Level 1: above 1-10% growth inhibition rate)	0	0										
CCOCc1c(S(C)(=O)=O)ccc(C(=O)c2c(CC)nn(CC)c2OC(=O)c2nn(C)cc2Cl)c1Cl [Compound 104]										10	8 (Level 8: above 80% growth inhibition rate)	10	10	10	10	0	4 (Level 4: above 30% growth inhibition rate)	0	
CCc1nn(C)c(C(=O)Oc2c(C(=O)c3ccc(S(C)(=O)=O)c(COCC(F)(F)F)c3Cl)cnn2C)c1Cl [Compound 105]										10	8 (Level 8: above 80% growth inhibition rate)	9 (Level 9: above 90% growth inhibition rate)	10	10	10	0	4 (Level 4: above 30% growth inhibition rate)	0	
CCc1nn(C)c(C(=O)Oc2c(C(=O)c3ccc(S(C)(=O)=O)c(Cn4cccn4)c3Cl)c(C)nn2C(C)C)c1Cl [Compound 106]										10	8 (Level 8: above 80% growth inhibition rate)	8 (Level 8: above 80% growth inhibition rate)	10	10	10	0	1 (Level 1: above 1-10% growth inhibition rate)	0	
